From ChEMBL document CHEMBL1148303, “Design and synthesis of alpha-aryloxy-alpha-methylhydrocinnamic acids: a novel class of dual peroxisome proliferator-activated receptor alpha/gamma agonists” (J Med Chem, 2004)
pEC50, pIC50: −log10 of the molar value.

What was measured:
[1] = target: T1, Peroxisome proliferator-activated receptor delta (Homo sapiens, UniProt Q03181); format: cell-based; details: cv-1
T1 sequence (Q03181 whole entry): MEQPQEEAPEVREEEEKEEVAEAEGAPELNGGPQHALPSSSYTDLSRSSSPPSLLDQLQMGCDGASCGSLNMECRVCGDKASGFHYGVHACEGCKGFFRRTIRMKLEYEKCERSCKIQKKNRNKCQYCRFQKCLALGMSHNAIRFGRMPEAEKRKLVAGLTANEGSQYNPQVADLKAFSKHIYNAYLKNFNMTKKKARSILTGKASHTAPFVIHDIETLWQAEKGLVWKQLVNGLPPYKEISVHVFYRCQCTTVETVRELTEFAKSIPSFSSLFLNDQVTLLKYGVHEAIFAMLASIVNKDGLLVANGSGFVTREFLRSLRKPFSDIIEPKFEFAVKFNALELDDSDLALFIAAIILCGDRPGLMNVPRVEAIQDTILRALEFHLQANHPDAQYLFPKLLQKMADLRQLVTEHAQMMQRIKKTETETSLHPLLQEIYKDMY

[2] = target: T1, Peroxisome proliferator-activated receptor delta; format: cell-based, CV-1; details: for EC50: cv-1
[3] = target: T1, Peroxisome proliferator-activated receptor delta; format: functional
[4] = target: T2, Peroxisome proliferator-activated receptor alpha (Homo sapiens, UniProt Q07869); format: functional
T2 sequence (Q07869 whole entry): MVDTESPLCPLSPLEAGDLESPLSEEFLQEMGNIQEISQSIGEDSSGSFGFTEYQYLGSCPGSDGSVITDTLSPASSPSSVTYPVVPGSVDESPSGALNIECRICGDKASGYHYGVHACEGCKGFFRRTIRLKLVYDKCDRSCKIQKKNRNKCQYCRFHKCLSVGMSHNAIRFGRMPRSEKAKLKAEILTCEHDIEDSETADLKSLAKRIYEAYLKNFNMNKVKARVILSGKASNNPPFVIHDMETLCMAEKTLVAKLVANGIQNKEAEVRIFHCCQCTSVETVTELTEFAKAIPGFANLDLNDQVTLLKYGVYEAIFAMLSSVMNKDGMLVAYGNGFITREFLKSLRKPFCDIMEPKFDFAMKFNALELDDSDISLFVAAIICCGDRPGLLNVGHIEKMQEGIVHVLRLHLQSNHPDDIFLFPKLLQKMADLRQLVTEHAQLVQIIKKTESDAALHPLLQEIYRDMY

[5] = target: T2, Peroxisome proliferator-activated receptor alpha; format: cell-based, CV-1
[6] = target: T1, Peroxisome proliferator-activated receptor delta
[7] = target: T1, Peroxisome proliferator-activated receptor delta; remark: listed apart in the source

| SMILES | EC50 [1] | EC50 [2] | pIC50 [3] | pIC50 [4] | pEC50 [5] | further results |
| --- | --- | --- | --- | --- | --- | --- |
| Cc1oc(-c2cccs2)nc1CCOc1ccc(C[C@@](C)(Oc2ccccc2)C(=O)O)cc1 | – | Not Active | – | – | – | – |
| Cc1oc(-c2ccccc2)nc1CCOc1ccc(CC(Oc2ccccc2)C(=O)O)cc1 (stereo not given) | – | Not Active | 5.15 | 5.96 | 6.08 | – |
| Cc1oc(-c2cccc(-c3ccccc3)c2)nc1CCOc1ccc(CC(C)(Oc2ccccc2)C(=O)O)cc1 (stereo not given) | Not Active | – | – | 6.78 | 8.15 | IC50 [6]: Not Active |
| Cc1oc(-c2ccccc2)nc1CCOc1ccc(CC(C)(Oc2ccccc2)C(=O)O)cc1 (stereo not given) | Not Active | – | 5.15 | – | – | – |
| CCC(Cc1ccc(OCCc2nc(-c3ccccc3)oc2C)cc1)(Oc1ccccc1)C(=O)O (stereo not given) | – | Not Active | 5.29 | 6.33 | 7.12 | – |
| Cc1oc(C2CCCCC2)nc1CCOc1ccc(CC(C)(Oc2ccccc2)C(=O)O)cc1 (stereo not given) | Not Active | – | – | – | – | IC50 [7]: Not Active |
| Cc1oc(-c2ccc(-c3ccccc3)cc2)nc1CCOc1ccc(CC(C)(Oc2ccccc2)C(=O)O)cc1 (stereo not given) | Not Active | – | – | 6.30 | 7.16 | IC50 [7]: Not Active |
| Cc1oc(-c2ccccc2)nc1CCOc1ccc(C[C@](C)(Oc2ccccc2)C(=O)O)cc1 | – | Not Active | 5.26 | – | – | – |

Second part, led by results:

| EC50 [1] | EC50 [2] | pIC50 [3] | pIC50 [4] | pEC50 [5] | SMILES | further results |
| --- | --- | --- | --- | --- | --- | --- |
| Not Active | – | – | – | – | Cc1oc(-c2cccs2)nc1CCOc1ccc(C[C@](C)(Oc2ccccc2)C(=O)O)cc1 [LY-510929] | – |
| – | Not Active | 5.01 | – | – | Cc1oc(C2CCCCC2)nc1CCOc1ccc(C[C@](C)(Oc2ccccc2)C(=O)O)cc1 | – |
| Not Active | – | – | – | – | Cc1oc(-c2cccs2)nc1CCOc1ccc(CC(C)(Oc2ccccc2)C(=O)O)cc1 (stereo not given) | – |
| – | – | 5.57 | – | – | Cc1oc(-c2ccccc2)nc1CCOc1ccc(C[C@@](C)(Oc2ccccc2)C(=O)O)cc1 | pEC50 ([2]; read-out: EC50): 5.52 |
| Not Active | – | 5.35 | – | – | Cc1oc(-c2ccccc2)nc1CCOc1ccc(OC(C)(Cc2ccccc2)C(=O)O)cc1 (stereo not given) | – |
| – | Not Active | 5.14 | 5.73 | 5.59 | CCCCC(Cc1ccc(OCCc2nc(-c3ccccc3)oc2C)cc1)(Oc1ccccc1)C(=O)O (stereo not given) | – |
